Experimental data published in patent publication US20090041719A1, “Method for screening therapeutic agent for glomerular disorder” (priority 2006, published 2009).
Values joined by “and” are separate entries in the source; they are usually repeats but may differ in a detail not shown here. Identical values can stand only once.

What was measured:
[1] = tested on: glomerular lesions; renal tubulointerstitial lesions; conditions: International Publication WO 2004/024185 and 01/72730 pamphlets; cited from earlier work
FRP-1/CD98/4F2hc = experiment: FACScan of FRP-1/CD98/4F2hc expression on macrophage fraction of LPS-stimulated human PBMC (monoclonal antibodies 4-5-1, 6-1-3, HBJ-127); format: cell-based
4F2hc [2] = experiment: HAT heavy chain 4F2hc on large-monocyte fraction of LPS-stimulated human PBMC, peak value by FACScan (polyclonal antibody); format: cell-based
Description: (§1) In the same manner as in 1) to 5) of Experimental Example 1, to human peripheral blood mononuclear cells, the test compound (6-2) (final concentration: 10 nM) or the test compound (7-3) (final concentration: 100 nM) was added at the same time when LPS (final concentration: 80 μg/ml) was added, followed by 6-day culture. Further, in the same manner as above, using rabbit anti-human 4F2hc polyclonal antibodies (see Biol Pharm Bull 30:415-422, 2007) as a primary antibody, the peak value of HAT expressed on the fraction of large-macrophages (larger than monocyte macrophages) in human PBMC was measured by FACScan using a commercially available cell fix/cell membrane infiltration kit (trade name: BD Cytofix/Cytoperm™ Kit, catalog No. 554714, BD Biosciences).
(§2) As a control, the one with no test-compound addition was used, and as a rabbit anti-human rBAT (related to b^0,+-type amino acid transporter) polyclonal antibody, the one obtained by coupling a synthesized peptide composed of an amino-terminal of human rBAT (MAEDKSKRDSIEMSMKGC (SEQ ID NO: 2)) and a carboxyl-terminal of mouse b^0,+AT (BAT1) (CHLQMLEWPEKDPE (SEQ ID NO: 3)) to a carrier KLH (keyhole-limpet hemocyanin), and immunizing a rabbit with it.

rBAT = experiment: HAT heavy chain rBAT on large-monocyte fraction of LPS-stimulated human PBMC, peak value by FACScan; format: cell-based; conditions: human PBMC + LPS 80 μg/ml, 6-day culture; test compound 100 nM; solvent control 37
Description: as §1, §2

[3] = tested on: rat unilateral ureteral obstruction release model; experiment: Rat unilateral ureteral obstruction release model: glomerular and tubulointerstitial lesions, Asc-1+ cells; format: in vivo, SD rat;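 on Tubulointerstitial lesion: atrophy of tubules associated with dilatation of tubules (score): ± very light + light ++ moderate +++ high change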;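 on Tubulointerstitial lesion: fibrosis of interstitial tissue (score): ± very light + light ++ moderate +++ high change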;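 on Tubulointerstitial lesion: thickness of basement membrane (score): ± very light + light ++ moderate +++ high change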
From the text: An experimental model was produced in accordance with the method devised and established by Ishibashi (Michio Ishibasi et al., Japanese Journal of Nephrology 42: 248, 2000), using a 8 to 9-week-old male SD rat weighing about 280 g. […] On day 14 after obstruction, the obstruction was released, and the urinary tract was reconstructed using a cuff. That is, 14 days later, the ligated ureteral obstruction part was partially removed, and a 25 gauge polyethylene tube (made by Nippon Sherwood) as a cuff was inserted from the lower normal ureteral stump and placed in the lumen. Next, the cuff was placed also in the expanded upper ureter, and both parts were ligated for fixation with a 7-0 nylon suture to reconstruct the urinary tract. At the same time, the right kidney was removed. The weight was measured after obstruction release, and the blood was collected on days 2, 5, and 7 after release for serum creatinine determination. On day 7, the rat was sacrificed under anesthesia and the left obstruction release kidney was removed. The weight of the removed kidney was measured, and the kidney pathomorphological examination was performed.
The biological effects of the test compound were studied in vivo using the model obtained in the above procedure 1). The test compound in the form of bulk powder was dissolved in sterilized physiologic saline together with gum arabic, where the concentration of the gum arabic was adjusted to 5% and the concentration of the test compound was adjusted to 30 mg/ml. The amount of 30 mg/kg was subcutaneously administered every day. Daily administration was continued for 21 days during 14 days of obstruction and 7 days after obstruction release. For controlled comparison, the solvent of 5% gum arabic was administered alone.
On day 22 from the administration of the test compound, the rat was sacrificed under anesthesia, and the left obstruction release kidney was removed and neutral formalin fixed. The fixed renal tissue embedded in paraffin was sliced into 4-micrometer-thick pieces for examination.
The tissue section was observed under a microscope in order to count the number of glomeruli and the number of glomeruli having a lesion (expansion of a tubular pole associated with swollen Bowman's capsule epithelial cells or hypertrophy of a Bowman's capsule basal membrane) in the field of view, and the number of glomeruli having the lesion (referred to as “lesioned glomerulus”) per 50 glomeruli was calculated.
As for the effectiveness to improve of glomerular lesions, when the number of lesioned glomeruli per 50 glomeruli was reduced to less than or equal to half the average number of those of the control group, it was determined as improved.
An affinity-purified anti-rat Asc-1 polyclonal antibody (rabbit) was prepared as follows: that is, in order to prepare an anti-Asc-1 peptide polyclonal antibody (rabbit), an oligopeptide (PSPLPITDKPLKTQC (SEQ. ID NO: 4)) corresponding to amino acid residues of 517-530 of Asc-1 was synthesized (see J Biol Chem (2000); 275: 9690-9698), keyhole limpet hemocyanine was bound to the C-terminal cysteine as an adjuvant, and […] was immunized therewith. The serum was collected on days 7 and 14 from the immunization. The serum was concentrated by means of an adsorption-dissociation operation using an affinity column to which an oligopeptide corresponding to amino acid residues of 517-530 of Asc-1 was bound in order to obtain an affinity-purified antibody having a protein content of 0.5 mg/ml. As for immunopathological examination, paraffin rat […] diluted with PBS to the optimal concentration was used.
The immune tissue staining was performed based on the protocol of Ventana HX system bench mark (Ventana Japan K.K., Tokyo) including the automated immunostaining device manufactured by Ventana Japan K.K. After deparaffinization, the tissue section was heat-treated at 100° C. for 1 hour. […]

4F2hc [4] = experiment: 4F2hc on large-cell fraction of LPS-stimulated THP-1, peak value by FACScan; format: cell-based, human
Description: The same procedures as in Experimental Example 2 were taken except the following conditions: human leukemia culture cell line THP-1 was used instead of the human peripheral blood mononuclear cells; the final addition concentration of the test compound (6-2) was set to 100 nM, and the final addition concentration of the test compound (7-3) was set to 1000 nM; and fetal bovine serum was used instead of the human AB serum. The peak value of HAT expressed on the fraction of large-cells in human leukemia culture cell strain THP-1, compared with those not stimulated with LPS, was measured. As a control, the one with no test-compound addition was used, and the peak value of HAT was measured by FACScan using a commercially available cell fix/cell membrane infiltration kit (trade name: BD Cytofix/Cytopem™ Kit, catalog No. 554714, BD Bioscience).

[5] = human PBMC + LPS 80 μg/ml, 6-day culture, test compound 100 nM
[6] = group average ± standard deviation
[7] = individual animal, 30 mg/kg s.c. daily for 21 days, 30 mg/kg
[8] = individual animal, points: ± 0.5, + 1, ++ 2, +++ 3

O=C1OC(Cl)(C(=O)OCc2ccccc2)c2ccccc21 (stereo not drawn) [Compound (7-3)]
known action on renal tubulointerstitial lesions [1]: selectively inhibit the renal tubulointerstitial lesions | Migration of FRP-1/CD98/4F2hc expression of macrophage fraction by FACScan (migration rate %), monoclonal antibody 4-5-1 (FRP-1) (FRP-1/CD98/4F2hc; [5]): 2.6% | Migration of FRP-1/CD98/4F2hc expression of macrophage fraction by FACScan (migration rate %), monoclonal antibody 6-1-3 (FRP-1) (FRP-1/CD98/4F2hc; [5]): 2.0% | Migration of FRP-1/CD98/4F2hc expression of macrophage fraction by FACScan (migration rate %), monoclonal antibody HBJ-127 (CD98) (FRP-1/CD98/4F2hc; [5]): 5.4% | expression of FRP-1/CD98/4F2hc on macrophage fraction of human PBMC (in words) (FRP-1/CD98/4F2hc; stimulated and cultured with LPS, summary of Table 1): did not increase the expression | Change in HAT expressed on large-monocyte fraction of human PBMC (peak value by FACScan), 4F2hc (4F2hc [2]; human PBMC + LPS 80 μg/ml, 6-day culture, test compound 100 nM, solvent control 23): 20 | amount of 4F2hc in the heavy chain of HAT (in words) (4F2hc [2]; human PBMC + LPS, summary of Table 2): did not show any effects | Change in HAT expressed on large-monocyte fraction of human PBMC (peak value by FACScan), rBAT (rBAT): 38 | amelioration / reduction of tubulointerstitial lesions, rats of the group ([3]; control group: one rat out of four): all of four rats | Glomerular lesion: number of lesioned glomeruli per 50 glomeruli, expansion of tubular pole associated with swollen Bowman's capsule epithelial cells [3, 6]: 5 ± 3 per 50 glomeruli | Glomerular lesion: number of lesioned glomeruli per 50 glomeruli, hypertrophy of Bowman's capsule basal membrane [3, 6]: 14 ± 5 per 50 glomeruli | Number of Asc-1+ cells per 50 glomeruli [3, 6]: 0.90 ± 0.47 per 50 glomeruli | Tubulointerstitial lesion: atrophy of tubules associated with dilatation of tubules (score) [3, 6]: 0.50 ± 0.4 | Tubulointerstitial lesion: fibrosis of interstitial tissue (score) [3, 6]: 0.5 ± 0 | Tubulointerstitial lesion: thickness of basement membrane (score) [3, 6]: 0.4 ± 0.3 | Tubulointerstitial lesion: total score [3, 6]: 1.4 ± 0.6 | Glomerular lesion: number of lesioned glomeruli per 50 glomeruli, expansion of tubular pole associated with swollen Bowman's capsule epithelial cells [3, 7]: 9 per 50 glomeruli and 1 per 50 glomeruli and 6 per 50 glomeruli and 4 per 50 glomeruli | Glomerular lesion: number of lesioned glomeruli per 50 glomeruli, hypertrophy of Bowman's capsule basal membrane [3, 7]: 20 per 50 glomeruli and 10 per 50 glomeruli and 16 per 50 glomeruli and 11 per 50 glomeruli | Number of Asc-1+ cells per 50 glomeruli [3, 7]: 1.35 per 50 glomeruli and 0.47 per 50 glomeruli and 1.27 per 50 glomeruli and 0.53 per 50 glomeruli | Improvement of glomerular lesion ([3]; individual animal, Yes = lesioned glomeruli per 50 glomeruli reduced to less than or equal to half the control average): No (2×) and Yes (2×) | Tubulointerstitial lesion: atrophy of tubules associated with dilatation of tubules (score) [3, 8]: 0.5 (2×) and 0 and 1 | Tubulointerstitial lesion: fibrosis of interstitial tissue (score) [3, 8]: 0.5 | Tubulointerstitial lesion: thickness of basement membrane (score) [3, 8]: 0.5 (3×) and 0 | Tubulointerstitial lesion: total score ([3]; individual animal, sum of the three scores): 1.5 (2×) and 0.5 and 2 | Asc-1 positive cells in the glomeruli (in words) ([3]; versus control group): only a small number | Change in HAT expressed on large-cell fraction of THP-1 (peak value by FACScan), 4F2hc (4F2hc [4]; THP-1 + LPS 80 μg/ml, fetal bovine serum, test compound 1000 nM, solvent control 12): 11 | amount of 4F2hc in the heavy chain of HAT (in words) (4F2hc [4]; THP-1 + LPS, summary of Table 3): did not make any change
